For 29 compounds, IC50 results are on record in patent publication US20260315452A1, “PROTEASE INHIBITORS AND USES THEREOF” (priority 2023, published 2026).

The test deals with SARS-CoV-2 3CLpro (Severe acute respiratory syndrome coronavirus 2, UniProt P0DTD1). The test can be described thus: biochemical. The conditions noted are these: inhibition of SARS-CoV-2 3CLpro; 15 nM 3CLpro, 25 μM fluorogenic substrate, 37° C.; read-out: Inhibitory Activity (IC50).

`CNC(=O)c1cc(Br)cc([N+](=O)[O-])c1NCC1CN(C(=O)c2cncc3ccccc23)CC1(F)F` (centres unmarked) [Compound 77, 5-bromo-2-(((4,4-difluoro-1-(isoquinoline-4-carbonyl)pyrrolidin-3-yl)methyl)amino)-N-methyl-3-nitrobenzamide]: the IC50 lay within 1000 to 10000 nM. Next, `C[C@@H](NC(=O)c1cc(Br)cc([N+](=O)[O-])c1N1CCC2(CN(C(=O)c3cncc4ccccc34)CC2(F)F)C1)C(F)(F)F` (stereo partly drawn) [Compound 78, 5-bromo-2-(9,9-difluoro-7-(isoquinoline-4-carbonyl)-2,7-diazaspiro[4. 4]nonan-2-yl)-3-nitro-N-((R)-1,1,1-trifluoropropan-2-yl)benzamide]: under 100 nM; `CNC(=O)c1cc(Br)cc([N+](=O)[O-])c1N[C@H]1CN(C(=O)c2cncc3ccccc23)CC[C@@H]1F` [Compound 87, 5-bromo-2-(((3S, 4S)-4-fluoro-1-(isoquinoline-4-carbonyl)piperidin-3-yl)amino)-N-methyl-3-nitrobenzamide]: under 100 nM; `CNC(=O)c1cc(Br)cc([N+](=O)[O-])c1N[C@@H]1CN(C(C)=O)CC[C@@H]1NC(=O)c1cncc2ccccc12` [Compound 90, N-((3R, 4S)-1-acetyl-3-((4-bromo-2-(methylcarbamoyl)-6-nitrophenyl)amino)piperidin-4-yl)isoquinoline-4-carboxamide]: 1000 to 10000 nM.

Turning to `CNC(=O)c1cc(Br)cc([N+](=O)[O-])c1N[C@H]1CN(C(=O)C2CC(=O)NC(=O)C2)CCC1(F)F` [Compound 100, (S)-5-bromo-2-((1-(2,6-dioxopiperidine-4-carbonyl)-4,4-difluoropiperidin-3-yl)amino)-N-methyl-3-nitrobenzamide], the IC50 was 100 to 1000 nM. Take `CNC(=O)c1cc(Br)cc([N+](=O)[O-])c1N[C@H]1CN(C(=O)c2cnc3ccccn23)CCC1(F)F` [Compound 101, (S)-5-bromo-2-((4,4-difluoro-1-(imidazo[1,2-a]pyridine-3-carbonyl)piperidin-3-yl)amino)-N-methyl-3-nitrobenzamide]: the IC50 is under 100 nM. Consider `CNC(=O)c1cc(Br)cc([N+](=O)[O-])c1O[C@@H]1CCCC[C@@H]1NC(=O)c1cncc2ccccc12` [Compound 102, N-[(1S,2R)-2-[4-bromo-2-(methylcarbamoyl)-6-nitro-phenoxy]cyclohexyl]isoquinoline-4-carboxamide], for which the concentration for half-maximal inhibition (IC50) was under 100 nM. As for `CNC(=O)c1cc(Br)cc([N+](=O)[O-])c1N[C@H]1CN(C(=O)c2cc(=O)[nH]c3ccccc23)CCC1(F)F` [Compound 103, (S)-5-bromo-2-((4,4-difluoro-1-(2-oxo-1,2-dihydroquinoline-4-carbonyl)piperidin-3-yl)amino)-N-methyl-3-nitrobenzamide], the concentration for half-maximal inhibition (IC50) was under 100 nM. Turning to `CNC(=O)c1cc(Br)cc([N+](=O)[O-])c1N[C@H]1CN(C(=O)C2CC(=O)Nc3ccccc32)CCC1(F)F` (some centres unmarked) [Compound 104], the IC50 was under 100 nM. Consider `CNC(=O)c1cc(Cl)cc([N+](=O)[O-])c1N[C@H]1CN(C(=O)c2cncc3ncn(C)c23)CCC1(F)F` [Compound 105, (S)-5-chloro-2-((4,4-difluoro-1-(1-methyl-1H-imidazo[4,5-c]pyridine-7-carbonyl)piperidin-3-yl)amino)-N-methyl-3-nitrobenzamide], for which the half-inhibitory concentration (IC50) is under 100 nM. For `CNC(=O)c1cc(Cl)cc([N+](=O)[O-])c1N[C@H]1CN(C(=O)c2cncc3cnn(C)c23)CCC1(F)F` [Compound 106, (S)-5-chloro-2-((4,4-difluoro-1-(1-methyl-1H-pyrazolo[4,3-c]pyridine-7-carbonyl)piperidin-3-yl)amino)-N-methyl-3-nitrobenzamide], the IC50 was under 100 nM. For the compound `CNC(=O)c1cc(Br)cc([N+](=O)[O-])c1N[C@H]1CN(C(=O)c2cncc3cccnc23)CCC1(F)F` [Compound 107, (S)-5-bromo-2-((4,4-difluoro-1-(1,6-naphthyridine-8-carbonyl)piperidin-3-yl)amino)-N-methyl-3-nitrobenzamide], the IC50 is under 100 nM. `CNC(=O)c1cc(Br)cc([N+](=O)[O-])c1N[C@H]1CN(C(=O)c2cncc3cccnc23)CC[C@@H]1F` [Compound 108, 5-bromo-2-(((3S, 4S)-4-fluoro-1-(1,6-naphthyridine-8-carbonyl)piperidin-3-yl)amino)-N-methyl-3-nitrobenzamide]: the IC50 was under 100 nM. For `O=C(N[C@H]1CCOC1)c1cc(Br)cc(C(F)(F)F)c1N[C@H]1CN(C(=O)c2cncc3cccnc23)CCC1(F)F` [Compound 109, 5-bromo-2-(((S)-4,4-difluoro-1-(1,6-naphthyridine-8-carbonyl)piperidin-3-yl)amino)-N-((S)-tetrahydrofuran-3-y1)-3-(trifluoromethyl)benzamide], the IC50 is under 100 nM. `O=C(c1cc(Br)cc(C(F)(F)F)c1N[C@H]1CN(C(=O)c2cncc3cccnc23)CCC1(F)F)N1CC(O)C1` [Compound 110, (S)-(5-bromo-2-((4,4-difluoro-1-(1,6-naphthyridine-8-carbonyl)piperidin-3-yl)amino)-3-(trifluoromethyl)phenyl)(3-hydroxyazetidin-1-yl)methanone]: the IC50 was under 100 nM. Next, `COC1CN(C(=O)c2cc(Cl)cc([N+](=O)[O-])c2N[C@H]2CN(C(=O)c3cncc4cccnc34)CCC2(F)F)C1` [Compound 111, (S)-(5-chloro-2-((4,4-difluoro-1-(1,6-naphthyridine-8-carbonyl)piperidin-3-yl)amino)-3-nitrophenyl)(3-methoxyazetidin-1-yl)methanone]: under 100 nM; `O=C(c1cc(Cl)cc([N+](=O)[O-])c1N[C@H]1CN(C(=O)c2cncc3cccnc23)CCC1(F)F)N1CC(O)C1` [Compound 112, (S)-(5-chloro-2-((4,4-difluoro-1-(1,6-naphthyridine-8-carbonyl)piperidin-3-yl)amino)-3-nitrophenyl)(3-hydroxyazetidin-1-yl)methanone]: under 100 nM; `CNC(=O)c1cc(Br)cc([N+](=O)[O-])c1N[C@H]1CN(C(=O)c2cnnn2C)CCC1(F)F` [Compound 113, (S)-5-bromo-2-((4,4-difluoro-1-(1-methyl-1H-1,2,3-triazole-5-carbonyl)piperidin-3-yl)amino)-N-methyl-3-nitrobenzamide]: at least 10000 nM. Consider `CNC(=O)c1cc(Br)cc([N+](=O)[O-])c1N[C@H]1CN(C(=O)c2cccnc2C#N)CCC1(F)F` [Compound 114, (S)-5-bromo-2-((1-(2-cyanonicotinoyl)-4,4-difluoropiperidin-3-yl)amino)-N-methyl-3-nitrobenzamide], for which the IC50 is 1000 to 10000 nM.

Regarding `O=C(NC1CC(F)(F)C1)c1cc(Br)cc([N+](=O)[O-])c1N1CCC2(CCN(C(=O)c3cncnc3)C2)C1` (centres unmarked) [Compound 115, 5-bromo-N-(3,3-difluorocyclobutyl)-3-nitro-2-(7-(pyrimidine-5-carbonyl)-2,7-diazaspiro[4.4]nonan-2-yl)benzamide], the IC50 is at least 10000 nM. As for `CNC(=O)c1cc(Cl)cc([N+](=O)[O-])c1NC(C(C)C)C1CN(C(=O)c2cncc3ccccc23)C1` (centres unmarked) [Compound 130, 5-chloro-2-((1-(1-(isoquinoline-4-carbonyl)azetidin-3-yl)-2-methylpropyl)amino)-N-methyl-3-nitrobenzamide acid], the IC50 was in the range of 100 to 1000 nM. On to `CNC(=O)c1cc(Br)cc([N+](=O)[O-])c1Nc1ccccc1NC(=O)c1cncc2ccccc12` [Compound 131, N-(2-((4-bromo-2-(methylcarbamoyl)-6-nitrophenyl)amino)phenyl) isoquinoline-4-carboxamide], for which the IC50 was at least 10000 nM. As to `O=C(NC1CC(F)(F)C1)c1cc(Br)cc([N+](=O)[O-])c1N[C@H]1CN(C(=O)c2cncc3ccccc23)CC(F)(F)C1` [Compound 134, (R)-5-bromo-2-((5,5-difluoro-1-(isoquinoline-4-carbonyl)piperidin-3-yl)amino)-N-(3,3-difluorocyclobutyl)-3-nitrobenzamide], the IC50 lay in the range of 100 to 1000 nM. Regarding `C[C@@H](NC(=O)c1cc(Br)cc([N+](=O)[O-])c1N[C@@H]1COCC[C@@H]1NC(=O)c1cncc2ccccc12)C(F)(F)F` [Compound 136, N-((3S, 4S)-3-((4-bromo-2-nitro-6-(((R)-1,1,1-trifluoropropan-2-yl)carbamoyl)phenyl)amino)tetrahydro-2H-pyran-4-yl)isoquinoline-4-carboxamide], the IC50 lay within 100 to 1000 nM. Under `O=C(NC1CC(F)(F)C1)c1cc(Br)cc([N+](=O)[O-])c1N[C@@H]1COC[C@@H]1NC(=O)c1cncc2ccccc12` [Compound 137, N-((3R,4S)-4-((4-bromo-2-((3,3-difluorocyclobutyl)carbamoyl)-6-nitrophenyl)amino)tetrahydrofuran-3-yl)isoquinoline-4-carboxamide] stands 1000 to 10000 nM; under `CNC(=O)c1cc(Br)cc([N+](=O)[O-])c1N[C@@H]1CCC(C)(C)N(C(=O)c2cncc3ccccc23)C1` [Compound 138, (R)-5-bromo-2-((1-(isoquinoline-4-carbonyl)-6,6-dimethylpiperidin-3-yl)amino)-N-methyl-3-nitrobenzamide], 100 to 1000 nM; under `CNC(=O)c1cc(Br)cc([N+](=O)[O-])c1N[C@H]1CN(C(c2cncc3ccccc23)C(F)(F)F)CCC1(F)F` (some centres unmarked) [Compound 140, 5-bromo-2-(((35)-4,4-difluoro-1-(2,2,2-trifluoro-1-(isoquinolin-4-yl)ethyl)piperidin-3-yl)amino)-N-methyl-3-nitrobenzamide], at least 10000 nM. Take `CNC(=O)c1cc(Br)cc([N+](=O)[O-])c1N[C@H]1CN(C(=O)c2cncc3ccccc23)CC[C@H]1C` [Compound 141, 5-bromo-2-(((3R, 4R)-1-(isoquinoline-4-carbonyl)-4-methylpiperidin-3-yl)amino)-N-methyl-3-nitrobenzamide]: the IC50 lay in the range of 100 to 1000 nM.

Regarding `O=C(NCC(F)(F)F)c1cc(Br)cc([N+](=O)[O-])c1N[C@H]1CN(C(=O)c2cncc3ccccc23)CCC1(F)F` [Compound 148, (S)-5-bromo-2-((4,4-difluoro-1-(isoquinoline-4-carbonyl)piperidin-3-yl)amino)-3-nitro-N-(2,2,2-trifluoroethyl) benzamide], the concentration for half-maximal inhibition (IC50) was under 100 nM.
